Test results: the supplement of paper PMC11061612

Legend:
[1] = tested on: D-283MED (Other Solid Carcinomas); test: Bliss excess, mean over the matrix (fraction); higher = more synergy
In short: (§1)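 Cell lines grown in DMEM/F12 or RPMI with 10% FBS were plated in 1536-well plates and held 24 hours at 37°C, 5% CO2 before 72 hours of exposure to two-drug dose matrices, with DMSO typically at 0.2%. CellTiter-Glo 2.0 luminescence gave viability, which was converted to inhibition. Vehicle wells were set to 0 and blank wells to 1. Combination Emax is the second-highest inhibition in the matrix, and Bliss excess is the observed combination effect minus the expected EA + EB − EA·EB, where EA and EB are the single-agent effects.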

D-392MG (Glioblastoma) [2] = test: as above
In short: as §1

[3] = tested on: DOK (Oral Cavity Carcinoma); test: as above
In short: as §1

EW-22 (Ewing's Sarcoma) = test: as above
In short: as §1

HCC38 (Breast Carcinoma) = test: as above
In short: as §1

[4] = tested on: HLE (Hepatocellular Carcinoma); test: as above
In short: as §1

[5] = tested on: HOP-92 (Non-Small Cell Lung Carcinoma); test: as above
In short: as §1

HuO9 (Osteosarcoma) = test: as above
In short: as §1

MCF7 (Breast Carcinoma) = test: as above
In short: as §1

[6] = tested on: P31-FUJ (Acute Myeloid Leukemia); test: as above
In short: as §1

[7] = tested on: SK-UT-1 (Other Solid Carcinomas); test: as above
In short: as §1

[8] = tested on: SW48 (Colorectal Carcinoma); test: as above
In short: as §1

[9] = tested on: SW948 (Colorectal Carcinoma); test: as above
In short: as §1

[10] = tested on: U-118-MG (Low Grade Glioma); test: as above
In short: as §1

[11] = tested on: BICR78 (Oral Cavity Carcinoma); test: combination Emax (second highest fraction inhibited in the dose matrix, 72 h); higher = more inhibition; extreme values may be limits of the assay
In short: as §1

D-392MG (Glioblastoma) [12] = test: as above
In short: as §1

[13] = tested on: HOP-92 (Non-Small Cell Lung Carcinoma); test: as above
In short: as §1

[14] = tested on: NCI-H1688 (Small Cell Lung Carcinoma); test: as above
In short: as §1

[15] = tested on: P31-FUJ (Acute Myeloid Leukemia); test: as above
In short: as §1

[16] = tested on: SK-UT-1 (Other Solid Carcinomas); test: as above
In short: as §1
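Throughout, for Bliss excess, mean over the matrix: after 72 h of two-drug dosing.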

| SMILES | Bliss excess [1] | Bliss excess (D-392MG (Glioblastoma) [2]) | Bliss excess [3] | Bliss excess (EW-22 (Ewing's Sarcoma)) | Bliss excess (HCC38 (Breast Carcinoma)) | Bliss excess [4] | Bliss excess [5] | Bliss excess (HuO9 (Osteosarcoma)) | Bliss excess (MCF7 (Breast Carcinoma)) | Bliss excess [6] | Bliss excess [7] | Bliss excess [8] | Bliss excess [9] | Bliss excess [10] | combination Emax [11] | combination Emax (D-392MG (Glioblastoma) [12]) | combination Emax [13] | combination Emax [14] | combination Emax [15] | combination Emax [16] |
| --- | --- | --- | --- | --- | --- | --- | --- | --- | --- | --- | --- | --- | --- | --- | --- | --- | --- | --- | --- | --- |
| Cc1c2c(nn1C)CSCc1cc(n(C)n1)CSc1cc(c3ccccc3c1)OCCCc1c(C(=O)O)n(C)c3c-2c(Cl)ccc13 [AZD5991] + Cn1cnc2c(F)c(Nc3ccc(Br)cc3Cl)c(C(=O)NOCCO)cc21 [Selumetinib] (first compound max 1 µM, 7x7, partner max 3 µM) | -0.0265 | 0.0339 | 0.0495 | -0.019 | -0.0386 | -0.0459 | -0.0332 | -0.0386 | -0.0435 | 0.0399 | -0.0063 | 0.0102 | -0.0388 | -0.0054 | 0.441 | 0.364 | 0.456 | 0.411 | 0.998 | 0.164 |
| Cc1cc2ncnn2cc1Nc1ncc2c(n1)n(C1CCOCC1)c(=O)n2C [AZD7648] + C=CCn1c(=O)c2cnc(Nc3ccc(N4CCN(C)CC4)cc3)nc2n1-c1cccc(C(C)(C)O)n1 [AZD1775] (first compound max 10 µM, partner max 1 µM) | -0.0959 | 0.0035 | 0.0331 | -0.0043 | -0.0124 | -0.0273 | -0.0022 | -0.0298 | 0.0442 | -0.0027 | 0.0203 | -0.0702 | -0.047 | -0.0041 | 0.375 | 0.397 | 0.613 | 0.586 | 0.987 | 0.657 |
| Cc1cc2ncnn2cc1Nc1ncc2c(n1)n(C1CCOCC1)c(=O)n2C [AZD7648] + CCN(CCO)CCCOc1ccc2c(Nc3cc(CC(=O)Nc4cccc(F)c4)[nH]n3)ncnc2c1 [AZD2811] (first compound max 10 µM, 7x7, partner max 1 µM) | 0.0609 | -0.0108 | 0.0123 | -0.0261 | -0.0383 | 0.0271 | -0.0038 | 0.051 | -0.0135 | -0.017 | 0.0407 | -0.073 | -0.0979 | 0.0172 | 0.354 | 0.329 | 0.41 | 0.201 | 0.957 | 0.341 |
| Cc1cc2ncnn2cc1Nc1ncc2c(n1)n(C1CCOCC1)c(=O)n2C [AZD7648] + CN(C)CCCOc1ccc(-c2ccc3ncc4c(c3c2)n(C2CCOCC2)c(=O)n4C)cn1 [AZD0156] (first compound max 10 µM, 7x7, partner max 1 µM) | -0.0339 | -0.0405 | -0.0075 | 0.0335 | 0.0157 | -0.0274 | -0.0136 | 0.0522 | -0.0048 | 0.0381 | 0.0143 | -0.0183 | 0.0122 | -0.0217 | 0.208 | 0.301 | 0.231 | 0.147 | 0.566 | 0.214 |
| Cc1cc2ncnn2cc1Nc1ncc2c(n1)n(C1CCOCC1)c(=O)n2C [AZD7648] + C[C@@H]1COCCN1C2=NC(=NC(=C2)C3(CC3)[S@](=N)(=O)C)C4=C5C=CNC5=NC=C4 [AZD6738] (first compound max 10 µM, 7x7, partner max 10 µM) | -0.1 | 0.0217 | 0.0441 | 0.0058 | 0.0245 | 0.0049 | 0.0104 | -0.0537 | -0.0192 | 0.0131 | 0.0471 | -0.0195 | -0.0422 | -0.0049 | 0.598 | 0.52 | 0.493 | 0.251 | 0.967 | 0.757 |
| NC1(C(=O)N[C@@H](CCO)c2ccc(Cl)cc2)CCN(c2ncnc3[nH]ccc23)CC1 [Capivasertib] + CC(=O)c1c(C)c2cnc(Nc3ccc(N4CCNCC4)cn3)nc2n(C2CCCC2)c1=O [Palbociclib] (first compound max 10 µM, 7x7, partner max 10 µM) | -0.0227 | 0.0094 | 0.016 | -0.0152 | -0.023 | -0.002 | 0.0322 | -0.0311 | 0.049 | -0.0807 | -0.0009 | -0.0217 | -0.0442 | -0.0154 | 0.424 | 0.436 | 0.466 | 0.224 | 0.571 | 0.458 |
| NC1(C(=O)N[C@@H](CCO)c2ccc(Cl)cc2)CCN(c2ncnc3[nH]ccc23)CC1 [Capivasertib] + CC(C)n1c(=O)n(C)c2cnc3cc(F)c(-c4ccc(OCCCN5CCCCC5)nc4)cc3c21 [AZD1390] (first compound max 10 µM, 7x7, partner max 0.3 µM) | -0.0009 | -0.0645 | -0.0428 | -0.0613 | -0.0314 | -0.0323 | -0.0238 | -0.0009 | -0.11 | -0.169 | -0.0017 | -0.0345 | -0.0943 | -0.0405 | 0.368 | 0.228 | 0.376 | 0.296 | 0.645 | 0.354 |
| NC1(C(=O)N[C@@H](CCO)c2ccc(Cl)cc2)CCN(c2ncnc3[nH]ccc23)CC1 [Capivasertib] + CCN(CCO)CCCOc1ccc2c(Nc3cc(CC(=O)Nc4cccc(F)c4)[nH]n3)ncnc2c1 [AZD2811] (first compound max 10 µM, 7x7, partner max 1 µM) | 0.0666 | -0.0265 | -0.0355 | -0.0366 | 0.0054 | 0.0121 | -0.0285 | 0.0135 | 0.0943 | -0.0663 | 0.0666 | 0.0146 | -0.0161 | -0.0475 | 0.392 | 0.332 | 0.458 | 0.309 | 0.952 | 0.522 |
| NC1(C(=O)N[C@@H](CCO)c2ccc(Cl)cc2)CCN(c2ncnc3[nH]ccc23)CC1 [Capivasertib] + COc1nnc2ccc(N3CCC(c4ccc(OCCN5CCN(C)C(=O)[C@H]5C)cc4)CC3)nn12 [AZD5153] (first compound max 10 µM, 7x7, partner max 1 µM) | -0.0185 | -0.015 | 0.03 | 0.08 | -0.022 | -0.0096 | -0.0027 | -0.0142 | -0.0413 | 0.0066 | 0.0637 | -0.0226 | -0.0082 | 0.057 | 0.636 | 0.512 | 0.405 | 0.406 | 1 | 0.658 |
| NC1(C(=O)N[C@@H](CCO)c2ccc(Cl)cc2)CCN(c2ncnc3[nH]ccc23)CC1 [Capivasertib] + C[C@@H]1COCCN1C2=NC(=NC(=C2)C3(CC3)[S@](=N)(=O)C)C4=C5C=CNC5=NC=C4 [AZD6738] (first compound max 10 µM, 7x7, partner max 10 µM) | -0.0048 | -0.0393 | -0.0681 | -0.0047 | -0.0366 | -0.038 | -0.0518 | -0.0535 | -0.0707 | -0.145 | -0.0983 | -0.0387 | -0.102 | -0.0276 | 0.628 | 0.464 | 0.541 | 0.445 | 0.971 | 0.829 |
| NC1(C(=O)N[C@@H](CCO)c2ccc(Cl)cc2)CCN(c2ncnc3[nH]ccc23)CC1 [Capivasertib] + Cn1cnc2c(F)c(Nc3ccc(Br)cc3Cl)c(C(=O)NOCCO)cc21 [Selumetinib] (first compound max 10 µM, 7x7, partner max 10 µM) | 0.0855 | -0.0202 | 0.0518 | -0.0255 | 0.0116 | 0.0365 | 0.003 | -0.0116 | -0.0332 | 0.0376 | 0.0843 | -0.0453 | -0.0554 | 0.0071 | 0.548 | 0.484 | 0.685 | 0.372 | 0.931 | 0.447 |
| Cc1nc(Nc2ncc(C(=O)Nc3c(C)cccc3Cl)s2)cc(N2CCN(CCO)CC2)n1 [Dasatinib] + CC(=O)Nc1cccc(-n2c(=O)n(C3CC3)c(=O)c3c(Nc4ccc(I)cc4F)n(C)c(=O)c(C)c32)c1 [Trametinib] (first compound max 2 µM, 7x7, partner max 1 µM) | -0.0475 | 0.0155 | 0.0288 | -0.0457 | -0.0277 | 0.0283 | 0.113 | 0.0175 | -0.0601 | 0.108 | -0.0255 | 0.225 | -0.008 | -0.0736 | 0.435 | 0.627 | 0.928 | 0.249 | 0.65 | 0.344 |
| COc1cccc2c1C(=O)c1c(O)c3c(c(O)c1C2=O)C[C@@](O)(C(=O)CO)C[C@@H]3O[C@H]1C[C@H](N)[C@H](O)[C@H](C)O1 [Doxorubicin] + Cc1cc2ncnn2cc1Nc1ncc2c(n1)n(C1CCOCC1)c(=O)n2C [AZD7648] (first compound max 1 µM, 7x7, partner max 10 µM) | 0.0461 | 0.0458 | 0.0485 | 0.061 | 0.0206 | 0.0309 | 0.0271 | 0.0731 | 0.058 | 0.108 | 0.093 | 0.0535 | 0.0438 | 0.0909 | 0.748 | 0.586 | 0.547 | 0.732 | 0.995 | 0.873 |
| COc1cc2ncnc(Nc3ccc(F)c(Cl)c3)c2cc1OCCCN1CCOCC1 [Gefitinib] + CC(C)n1c(=O)n(C)c2cnc3cc(F)c(-c4ccc(OCCCN5CCCCC5)nc4)cc3c21 [AZD1390] (first compound max 10 µM, 7x7, partner max 0.3 µM) | -0.0426 | -0.086 | -0.0341 | -0.0252 | -0.0485 | -0.0487 | -0.0439 | -0.058 | -0.0395 | -0.0201 | -0.0319 | -0.0516 | -0.0215 | -0.0498 | 0.286 | 0.084 | 0.229 | 0.233 | 0.455 | 0.0993 |
